Experimental data reported in ChEMBL document CHEMBL1201862, “PubChem BioAssay data set” (2004).
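Grown in 96-well plates, cells were treated for 48 hours with each compound at five concentrations. Insufficient inhibition: endpoint recorded as highest concentration tested. Abbreviation: GI50, concentration required for 50% inhibition of growth.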 Activity calls are given as the source filed them. Rule as the data show it: active = GI50 up to about 1.1 µM and inactive = higher.

Legend:
Test in all cases: DTP human tumour cell line panel, 48 h
HT-29 = test system: HT-29
SF-295 = test system: SF-295
SN12C = test system: SN12C
NCI-H460 = test system: NCI-H460
COLO 205 = test system: COLO 205
ACHN = test system: ACHN
SK-MEL-2 = test system: SK-MEL-2
Malme-3M = test system: Malme-3M
MOLT-4 = test system: MOLT-4
OVCAR-5 = test system: OVCAR-5
NCI-H522 = test system: NCI-H522
UO-31 = test system: UO-31
Hs-578T = test system: Hs-578T
SW-620 = test system: SW-620
OVCAR-8 = test system: OVCAR-8
U-251 = test system: U-251
HOP-62 = test system: HOP-62
T47D = test system: T47D
BT-549 = test system: BT-549
MCF7 = test system: MCF7
UACC-257 = test system: UACC-257
SNB-19 = test system: SNB-19
OVCAR-4 = test system: OVCAR-4
SK-MEL-5 = test system: SK-MEL-5
SNB-75 = test system: SNB-75
TK-10 = test system: TK-10
MDA-MB-435 = test system: MDA-MB-435
MDA-N = test system: MDA-N
CAKI-1 = test system: CAKI-1
A549 = test system: A549
LOX IMVI = test system: LOX IMVI
SK-OV-3 = test system: SK-OV-3
786-0 = test system: 786-0
HL-60 = test system: HL-60
SR = test system: SR
SF-539 = test system: SF-539
DU-145 = test system: DU-145
SF-268 = test system: SF-268
KM12 = test system: KM12
UACC-62 = test system: UACC-62
NCI/ADR-RES = test system: NCI/ADR-RES
HCT-116 = test system: HCT-116
RPMI-8226 = test system: RPMI-8226
NCI-H23 = test system: NCI-H23
K562 = test system: K562
CCRF-CEM = test system: CCRF-CEM
SK-MEL-28 = test system: SK-MEL-28
PC-3 = test system: PC-3
EKVX = test system: EKVX
M14 = test system: M14
HCC 2998 = test system: HCC 2998
NCI-H226 = test system: NCI-H226
HCT-15 = test system: HCT-15
IGROV-1 = test system: IGROV-1
OVCAR-3 = test system: OVCAR-3
A498 = test system: A498
RXF 393 = test system: RXF 393
MDA-MB-231 = test system: MDA-MB-231
HOP-92 = test system: HOP-92

Compound: O=C(CCCn1ccnc1[N+](=O)[O-])NCCn1cnc([N+](=O)[O-])c1
- GI50 (HT-29): > 100 µM (inactive)
- GI50 (SF-295): > 100 µM (inactive)
- GI50 (SN12C): > 100 µM (inactive)
- GI50 (NCI-H460): > 100 µM (inactive)
- GI50 (COLO 205): > 100 µM (inactive)
- GI50 (ACHN): > 100 µM (inactive)
- GI50 (SK-MEL-2): > 100 µM (inactive)
- GI50 (Malme-3M): > 100 µM (inactive)
- GI50 (MOLT-4): > 100 µM (inactive)
- GI50 (OVCAR-5): > 100 µM (inactive)
- GI50 (NCI-H522): > 100 µM (inactive)
- GI50 (UO-31): > 100 µM (inactive)
- GI50 (Hs-578T): > 100 µM (inactive)
- GI50 (SW-620): > 100 µM (inactive)
- GI50 (OVCAR-8): > 100 µM (inactive)
- GI50 (U-251): > 100 µM (inactive)
- GI50 (HOP-62): > 100 µM (inactive)
- GI50 (T47D): > 100 µM (inactive)
- GI50 (BT-549): > 100 µM (inactive)
- GI50 (MCF7): > 100 µM (inactive)
- GI50 (UACC-257): > 100 µM (inactive)
- GI50 (SNB-19): > 100 µM (inactive)
- GI50 (OVCAR-4): > 100 µM (inactive)
- GI50 (SK-MEL-5): > 100 µM (inactive)
- GI50 (SNB-75): > 100 µM (inactive)
- GI50 (TK-10): > 100 µM (inactive)
- GI50 (MDA-MB-435): > 100 µM (inactive)
- GI50 (MDA-N): > 100 µM (inactive)
- GI50 (CAKI-1): > 100 µM (inactive)
- GI50 (A549): > 100 µM (inactive)
- GI50 (LOX IMVI): > 100 µM (inactive)
- GI50 (SK-OV-3): > 100 µM (inactive)
- GI50 (786-0): > 100 µM (inactive)
- GI50 (HL-60): > 100 µM (inactive)
- GI50 (SR): > 100 µM (inactive)
- GI50 (SF-539): > 100 µM (inactive)
- GI50 (DU-145): > 100 µM (inactive)
- GI50 (SF-268): > 100 µM (inactive)
- GI50 (KM12): > 100 µM (inactive)
- GI50 (UACC-62): > 100 µM (inactive)
- GI50 (NCI/ADR-RES): > 100 µM (inactive)
- GI50 (HCT-116): > 100 µM (inactive)
- GI50 (RPMI-8226): > 100 µM (inactive)
- GI50 (NCI-H23): > 100 µM (inactive)
- GI50 (K562): > 100 µM (inactive)
- GI50 (CCRF-CEM): > 100 µM (inactive)
- GI50 (SK-MEL-28): > 100 µM (inactive)
- GI50 (PC-3): > 100 µM (inactive)
- GI50 (EKVX): > 100 µM (inactive)
- GI50 (M14): > 100 µM (inactive)
- GI50 (HCC 2998): > 100 µM (inactive)
- GI50 (NCI-H226): > 100 µM (inactive)
- GI50 (HCT-15): > 100 µM
- GI50 (IGROV-1): > 100 µM (inactive)
- GI50 (OVCAR-3): > 100 µM (inactive)

Compound: c1ccc(/N=C2\c3ccccc3CN2c2ccccn2)nc1
- GI50 (HT-29): 34.2 µM (inactive)
- GI50 (SF-295): > 100 µM (inactive)
- GI50 (SN12C): > 100 µM (inactive)
- GI50 (NCI-H460): 89.3 µM (inactive)
- GI50 (COLO 205): 58.6 µM (inactive)
- GI50 (ACHN): > 100 µM (inactive)
- GI50 (SK-MEL-2): > 100 µM (inactive)
- GI50 (MOLT-4): 54.6 µM (inactive)
- GI50 (OVCAR-5): > 100 µM (inactive)
- GI50 (NCI-H522): 61.7 µM (inactive)
- GI50 (UO-31): > 100 µM (inactive)
- GI50 (Hs-578T): > 100 µM (inactive)
- GI50 (SW-620): > 100 µM (inactive)
- GI50 (OVCAR-8): > 100 µM (inactive)
- GI50 (A498): > 100 µM (inactive)
- GI50 (U-251): > 100 µM (inactive)
- GI50 (HOP-62): > 100 µM (inactive)
- GI50 (RXF 393): > 100 µM (inactive)
- GI50 (T47D): 17.5 µM (inactive)
- GI50 (BT-549): > 100 µM (inactive)
- GI50 (MCF7): 49.9 µM (inactive)
- GI50 (UACC-257): > 100 µM (inactive)
- GI50 (SNB-19): > 100 µM (inactive)
- GI50 (OVCAR-4): > 100 µM (inactive)
- GI50 (SK-MEL-5): > 100 µM (inactive)
- GI50 (SNB-75): 94.8 µM (inactive)
- GI50 (TK-10): > 100 µM (inactive)
- GI50 (MDA-MB-435): > 100 µM (inactive)
- GI50 (MDA-N): > 100 µM (inactive)
- GI50 (CAKI-1): > 100 µM (inactive)
- GI50 (A549): > 100 µM (inactive)
- GI50 (LOX IMVI): 96.2 µM (inactive)
- GI50 (SK-OV-3): > 100 µM (inactive)
- GI50 (786-0): > 100 µM (inactive)
- GI50 (HL-60): < 0.01 µM (active)
- GI50 (SF-539): > 100 µM (inactive)
- GI50 (DU-145): > 100 µM (inactive)
- GI50 (SF-268): > 100 µM (inactive)
- GI50 (KM12): > 100 µM (inactive)
- GI50 (UACC-62): > 100 µM (inactive)
- GI50 (HCT-116): 74.3 µM (inactive)
- GI50 (RPMI-8226): 78 µM (inactive)
- GI50 (NCI-H23): 71.9 µM (inactive)
- GI50 (MDA-MB-231): > 100 µM (inactive)
- GI50 (K562): 65 µM (inactive)
- GI50 (SK-MEL-28): > 100 µM (inactive)
- GI50 (PC-3): 70.1 µM (inactive)
- GI50 (EKVX): > 100 µM (inactive)
- GI50 (M14): > 100 µM (inactive)
- GI50 (HCC 2998): 37.8 µM (inactive)
- GI50 (NCI-H226): > 100 µM (inactive)
- GI50 (HCT-15): > 100 µM
- GI50 (IGROV-1): > 100 µM (inactive)
- GI50 (OVCAR-3): > 100 µM (inactive)
- GI50 (HOP-92): 15.7 µM (inactive)
